The results in this text go back to patent publication US20040180850A1, “Methods and compositions for treatment of gastric diseases” (priority 2001, published 2004).

In test [1] the test system is Helicobacter pylori. Kind of test: Semi-quantitative TLC overlay test with dilution series of glycosphingolipids. In kind it is binding. The following applies: evaluated visually after overlay with labeled bacteria and autoradiography.
Test [2] concerns Helicobacter pylori (strain 032). Put plainly: TLC bacterial overlay assay: binding of radiolabeled Helicobacter pylori to glycosphingolipids separated on thin-layer chromatograms. The following applies: for Helicobacter pylori binding activity of glycosphingolipid (in words): TLC overlay with 35S-labeled bacteria, autoradiography; for binding frequency for Helicobacter pylori: strain 032, total number of plates about 100.

Test [3] concerns Helicobacter pylori. Put plainly: TLC overlay assay of neoglycolipids (reductively aminated oligosaccharides). The format is binding. An excerpt:
The Helicobacter pylori binding oligosaccharide sequence has been reported in the structure GlcNAcβ3Galβ4GlcNAcβ6GalNAc from human gastric mucins. […] Therefore the preferred oligosaccharide sequences include O-glycans and analogues of O-glycan sequences such as GlcNAcβ3Galβ4GlcNAcβ6GlcNAc/GalNAc/Gal, GleNAcβ3Galβ4GlcNAcβ6GlcNAc/GalNAc/GalαSer/Thr, GlcNAcβ3Galβ4GlcNAcβ6(Gal/GlcNAcβ3)GlcNAc/GalNAc/GalαSer/Thr and glycopeptides and glycopeptide analogs comprising the O-glycan sequences. Even sequences lacking the non-reducing end GlcNAc may have some activity. Based on this all the other Helicobacter pylori binding oligosaccharide sequences (OS) and especially the trisaccharide epitopes are also especially preferred when linked from the reducing end to form structures OSβ6Gal(NAc)0-1 or OSβ6Glc(NAc)0-1 or OSβ6Gal(NAc)0-1Ser/Thr or OSβ6Glc(NAc)0-1αSer/Thr. The Ser or Thr-compounds or analogue thereof or the reducing oligosaccharides are also preferred when linked to a polyvalent carrier. The reducing oligosaccharides can be reductively linked to the polyvalent carrier.
TLC bacterial overlay assay. Thin-layer chromatography was performed on glass- or aluminum-backed silica gel 60 HPTLC plates (Merck, Darmstadt, Germany) using chloroform/methanol/water 60:35:8 (by volume) as solvent system. Chemical detection was accomplished by anisaldehyde stainig (Waldi, 1962). The bacterial overlay assay was performed as described previously (Hansson et al., 1985). Glycosphingolipids (1-4 μg/lane, or as indicated in the figure legend) were chromatographed on aluminum-backed silica gel plates and thereafter treated with 0.3-0.5% polyisobutylmethaerylate in diethylether/n-hexane 1:3 (by volume) for 1 min, dried and subsequently soaked in PBS containing 2% bovine serum albumin and 0.1% Tween 20 for 2 h A suspension of radio-labeled bacteria (diluted in PBS to 1×10^8 CFU/ml and 1-5×10^6 cpm/ml) was sprinkled over the chromatograms and incubated for 2 h followed by repeated rinsings with PBS. After drying the chromatograms were exposed to XAR-5 X-ray films (Eastman Kodak Co., Rochester, N.Y., USA) for 12-100 h.
0.6 mg of pentasaccharide was obtained after HPLC-purcation steps, the saccharide was more than 98% pure when analyzed by mass spectrometry. Part of the pentasaccharide and maltoheptaose (Sigma, Saint Louis, USA) were reductively aminated with 4-hexadecylamnie (abbreviation HDA, from Aldrich, Stockholm, Sweden) by cyanoborohydride (Halina Miller-Podraza, to be published later). […]

“Also recorded” adds a separate entry of the source.

On to “Galβ4GlcNAcβ3Galβ4GlcNAcβ3Galβ4Glcβ1Cer [No. 21]”, for which the “amount of glycolipid giving a positive response on TLC plates (binding of Helicobacter pylori)” value (shortened to “amount”) with Helicobacter pylori [1] is roughly 0.2 nmol/spot. Besides, in test [2], the “Helicobacter pylori binding activity of glycosphingolipid (in words)” value (“Helicobacter pylori binding activity” below) was “displayed binding activity” and the “binding frequency for Helicobacter pylori” value was roughly 90%.

In the case of `CCCCCCCCCCCCCCCCc1ccc(NC[C@H](O)[C@@H](O)[C@H](O[C@@H]2O[C@H](CO)[C@H](O)[C@H](O[C@@H]3O[C@H](CO)[C@@H](O[C@@H]4O[C@H](CO)[C@H](O)[C@H](O[C@@H]5O[C@H](CO)[C@@H](O)[C@H](O)[C@H]5NC(C)=O)[C@H]4O)[C@H](O)[C@H]3NC(C)=O)[C@H]2O)[C@H](O)CO)cc1` [GlcNAcβ3Galβ4GlcNAcβ3Galβ4Glc(red)-HDA], the “binding activity of neoglycolipid with regard to Helicobacter pylori (in words)” value (from here on “binding activity of neoglycolipid”) in the test on Helicobacter pylori [3] is “observable binding activity”.

“maltoheptaose(red)-HDA [maltoheptaose/red)-HDA, reference compound]”: in the test with Helicobacter pylori [3], the “binding activity of neoglycolipid” value is “totally inactive”.

On to “Galα3(Fucα2)Galβ4GlcNAcβ3Galβ4Glcβ1Cer [No. 23]”, for which, in test [2], the “Helicobacter pylori binding activity” value was “non-binding”.

For GlcNAcβ3Galβ4Glcβ1Cer [No. 1], the “Helicobacter pylori binding activity” value in test [2] was “inactive”.

As to `CC(=O)N[C@H]1[C@H](OC[C@H]2OC(O)[C@H](O)[C@@H](O)[C@H]2O)O[C@H](CO)[C@@H](O[C@@H]2O[C@H](CO)[C@H](O)[C@H](O[C@@H]3O[C@H](CO)[C@@H](O)[C@H](O)[C@H]3NC(C)=O)[C@H]2O)[C@@H]1O` (some centres unmarked) [GlcNAcβ3Galβ4GlcNAcβ6Gal], the “binding activity of neoglycolipid” value in the test with Helicobacter pylori [3] was “some binding activity”.

With “Fucα2Galβ4GlcNAcβ3Galβ4Glcβ1Cer [No. 18]”, the “Helicobacter pylori binding activity” value in test [2] was “absence of binding”.

In the case of “NeuAcα3GalNAcβ3Galβ4GlcNAcβ3Galβ4Glcβ1Cer [No. 24]”, in test [2], the “Helicobacter pylori binding activity” value is recorded as “non-binding”.

Turning to Galβ4Glcβ1Cer [diglycosylceramide], the “Helicobacter pylori binding activity” value in test [2] is reported as “displayed binding activity”.

As to Galβ4GlcNAcβ3Galβ4Glcβ1Cer [No. 5], the “amount” value with Helicobacter pylori [1] is given as roughly 0.3 nmol/spot. The “Helicobacter pylori binding activity” value in test [2] is listed as “displayed binding activity”.

Turning to “Galα3Galβ4GlcNAcβ3Galβ4Glcβ1Cer [No. 13]”, the “Helicobacter pylori binding activity” value in test [2] is on record as “binding-active”.

For the compound “GalNAcα3(Fucα2)Galβ4GlcNAcβ3Galβ4Glcβ1Cer [No. 22]”, the “Helicobacter pylori binding activity” value in test [2] was “non-binding”.

Consider “GalNAcβ3Galβ4GlcNAcβ3Galβ4Glcβ1Cer [No. 11]”, for which the “Helicobacter pylori binding activity” value in test [2] is recorded as “binding was also found”.

For “GalNAcβ3Galα3Galβ4GlcNAcβ3Galβ4Glcβ1Cer [No. 25]”, the “Helicobacter pylori binding activity” value in test [2] is on record as “non-binding”.

Regarding “GlcNAcβ3Galβ4GlcNAcβ3Galβ4Glcβ1Cer [No. 10]”, the “amount” value in the test on Helicobacter pylori [1] is 0.039 nmol/spot. The “Helicobacter pylori binding activity” value in test [2] (listed as pentaglycosylceramide) is reported as “strong activity; also recorded: displayed binding activity”. The “binding frequency for Helicobacter pylori” value in test [2] is roughly 90%.

For the compound “Galα4Galβ4GlcNAcβ3Galβ4Glcβ1Cer [No. 15]”, in test [2], the “Helicobacter pylori binding activity” value is on record as “absence of binding”.

Turning to “NeuGcα3Galβ4GlcNAcβ3Galβ4GlcNAcβ3Galβ4Glcβ1Cer [No. 27]”, the “binding by Helicobacter pylori isolates” value in test [2] (about 60 isolates tested) is given as “bound by most Helicobacter pylori isolates”.

As for `CC(=O)N[C@H]1[C@H](OC[C@H]2OC(O)[C@H](NC(C)=O)[C@@H](O)[C@@H]2O)O[C@H](CO)[C@@H](O[C@@H]2O[C@H](CO)[C@H](O)[C@H](O[C@@H]3O[C@H](CO)[C@@H](O)[C@H](O)[C@H]3NC(C)=O)[C@H]2O)[C@@H]1O` (some centres unmarked) [GlcNAcβ3Galβ4GlcNAcβ6GlcNAc], in the test with Helicobacter pylori [3], the “binding activity of neoglycolipid” value is on record as “high affinity binding”.
